Data set [1] in a line: Solubility was determined. The data set is classed as physicochemical.
Data set [2] can be described thus: Percent of the mice tested that exhibited toxicity after a dose of 150 mg/kg. More on the design: dose 150 mg/kg. The note with it: mouse, in vivo. The data set is classed as organism-based.

Each structure is given as a SMILES string.

In general, solubility refers to the dissolved amount per volume that the medium holds. Read a low solubility as little dissolved substance. As for `COc1ccc(/C=C\c2cc(OC)c(OC)c(OC)c2)cc1O.N`, in data set [1], the solubility is approximately 2800 µg/mL.

The compound `COc1ccc(/C=C\c2cc(OC)c(OC)c(OC)c2)cc1[O-].[K+]` showed an Activity in data set [2] of 60%.
